Measured values as given in US20140291659A1, “DIOXAANTHANTHRENE COMPOUND, LAMINATED STRUCTURE AND FORMATION METHOD THEREOF, AND ELECTRONIC DEVICE AND MANUFACTURING METHOD THEREOF” (Sony Corporation, priority 2011, published 2014).

Test: Solubility in an organic solvent (toluene)
Format: physicochemical
Conditions: for Solubility: grams of PXX compound dissolving in 10 grams of toluene
Protocol: The melting point and the mesophase transition temperature of the PXX compound can be determined by TG-DTA (thermogravimetry/differential thermal analysis) and DSC (differential scanning calorimetry). Further, solubility in an organic solvent was measured. […] In Table 1, the mesophase transition temperature is denoted as “transition temperature”. […]

Structure (SMILES)	Solubility [g]	Amount dissolved in toluene (in 100 grams of toluene) [grams]
CC(C)c1ccc(-c2ccc3oc4ccc5c(-c6ccc(C(C)C)cc6)ccc6oc7ccc2c3c7-c4c65)cc1 [Comparative Example 2D]	0.37	0.37
CC(C)Cc1ccc(-c2ccc3oc4ccc5c(-c6ccc(CC(C)C)cc6)ccc6oc7ccc2c3c7-c4c65)cc1 [Working Example 2A]	1.5	–
CC(C)CCc1ccc(-c2ccc3oc4ccc5c(-c6ccc(CCC(C)C)cc6)ccc6oc7ccc2c3c7-c4c65)cc1 [Working Example 2B]	1.3	–
